Experimental data reported in EP0075141A1, “1,2,5-Oxadiazole-3,4-dicarboxylic-acid derivatives, process for their production, their use and pharmaceutical preparations containing them” (CASSELLA Aktiengesellschaft, priority 1981, dated 1983).

Tested on: Bastardhunden
Experiment: Haemodynamic study of antianginal and antihypertensive action in anaesthetised mongrel dogs
Format: in vivo
Details: dogs under pentobarbital or urethane-chloralose anaesthesia
Protocol: Die Untersuchungen über die antianginöse und antihypertensive Wirkung der Verbindungen der Formel I wurden an Bastardhunden beiderlei Geschlechts in Pentobarbital-Narkose (30 bis 40 mg/ kg i.v.) oder in Urethan-Chloralose-Narkose (3 ml/kg Urethan-Chloralose-Gemisch i.v. = 20 mg/kg Chloralose und 250 mg/kg Urethan) durchgeführt. Die Beatmung der Tiere erfolgte mit einem Bird-Mark-7-Respirator. Der endexpiratorische Kohlensäuregehalt (gemessen mit einem Ultrarotabsorptionsschreiber) betrug zwischen 4,5 und 5 Vol.%. Während des gesamten Versuchs erhielten die Tiere mit Pentobarbital-Narkose eine Dauerinfusion von Pentobarbital i.v. = 4 mg(in 6 ml)/kg/h, um eine konstante Narkosetiefe zu gewährleisten; die Tiere mit Urethan-Chloralose-Narkose erhielten keine Dauerinfusion. Die Infusion wurde durch die Vena cephalica gegeben. Nach der Präparation des Versuchstieres wurde ca. 1 Stunde gewartet, bis sich alle haemodynamischen Parameter eingestellt hatten (steady state). Danach wurde mit dem eigentlichen Versuch begonnen.
Zur Bestimmung des mittleren Blutdrucks (=BDm) wurde der systolische und diastolische Blutdruck peripher in der Arteria femora1is über einen Statham-Druckaufnehmer gemessen. Ein über die Arteria carotis in den linken Ventrikel geschobener Millartip-Katheter lieferte das Signal für den linksventrikulären enddiastolischen Druck (=LVEDP) und die Herzfrequenz (=HF). Mit einem zweiten, über die Venajugularis eingeschobenen Tip-Katheter wurde der mittlere Blutdruck (=PAP) in der Arteria pulmonalis erfaßt.

| SMILES | BDm Δ (mittlerer peripherer Blutdruck) (Dosis 1 mg/kg) [mmHg] | HF Δ (Herzfrequenz) (Dosis 1 mg/kg) | LVEDP Δ (linksventrikulärer enddiastolischer Druck) (Dosis 1 mg/kg) | PAP Δ (mittlerer Pulmonalarteriendruck) (Dosis 1 mg/kg) | further results |
| --- | --- | --- | --- | --- | --- |
| O=C(NCCO)c1nonc1C(=O)NCCO [HOCH2CH2NH- / HOCH2CH2NH-, 1,2,5-Oxadiazol-3,4-bis-(carbonsäure-ethanolamid)] | -30 | 0 b/min | -1 mmHg | -2,0 mmHg |  |
| CCCNC(=O)c1nonc1C(=O)NCCC [CH3CH2CH2NH- / CH3CH2CH2NH-, 1,2,5-Oxadiazol-3,4-bis-(carbonsäurepropylamid)] | -35 | 0 b/min | -0,5 mmHg | +1,1 mmHg |  |
| CNC(=O)c1nonc1C(=O)NC [H2CNH- / H3CNH-, l,2,5-0xadiazol-3,4-bis-(carbonsäuremethylamid)] |  |  |  |  | BDm Δ (mittlerer peripherer Blutdruck) (Dosis 0,5 mg/kg): -35 mmHg; HF Δ (Herzfrequenz) (Dosis 0,5 mg/kg): +20 b/min; LVEDP Δ (linksventrikulärer enddiastolischer Druck) (Dosis 0,5 mg/kg): -3,5 mmHg; PAP Δ (mittlerer Pulmonalarteriendruck) (Dosis 0,5 mg/kg): -3,0 mmHg |
| CCOC(=O)c1nonc1C(=O)NC(C)C [H5C2O- / [drawing] (r5)] |  |  |  |  | BDm Δ (mittlerer peripherer Blutdruck) (Dosis 3 mg/kg): -35 mmHg; LVEDP Δ (linksventrikulärer enddiastolischer Druck) (Dosis 3 mg/kg): -2,5 mmHg; PAP Δ (mittlerer Pulmonalarteriendruck) (Dosis 3 mg/kg): -2,0 mmHg |
| CCOC(=O)c1nonc1C(=O)NCCCN1CCN(c2ccccc2OC)CC1 [H5C2O- / [drawing] (r7)] | -30 |  | -2,5 mmHg | -1 mmHg |  |
| O=C(NCc1cccnc1)c1nonc1C(=O)NCc1cccnc1 [[drawing] / [drawing] (r2)] |  |  |  |  | BDm Δ (mittlerer peripherer Blutdruck) (Dosis 3 mg/kg): -45 mmHg; LVEDP Δ (linksventrikulärer enddiastolischer Druck) (Dosis 3 mg/kg): -8,5 mmHg; PAP Δ (mittlerer Pulmonalarteriendruck) (Dosis 3 mg/kg): -2,4 mmHg |
| O=C(NC1CCCCC1)c1nonc1C(=O)NC1CCCCC1 [[drawing] / [drawing] (r3)] | -55 | +15 b/min | -10 mmHg | -2,7 mmHg |  |
